“Also recorded” adds a separate entry of the source. Non-standard residues stand in square brackets, D forms with d. Residues, ends and D or L forms follow the SMILES beside them. *: point of attachment. Octanoyl = CCCCCCCC(=O)*; NH(CH2)4NH2 = NCCCCN*

Series [1] relates to human lung adenocarcinoma cell A549. In words: MTT cytotoxicity assay, A549. The class given is cell-based. As to conditions: for IC50: 24 h. The essentials:
(§1)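 Cytotoxicity in Kasumi, HepG-2, SGC-7901 and normal lung epithelial 2B cells, among other human tumour lines, was measured by MTT assay.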

Series [2] deals with human hepatoma cell HepG-2. In words: cells. Type of series: cell-based. As to conditions: 24 h. The gist of the method: (§2)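 MTT read-out of viability; cancer lines plus normal 2B epithelial cells. Lines authenticated by morphology, gene/protein expression.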
The test system of series [3] is human breast adenocarcinoma cells MDA-MB-231. The experiment in a line: cells. The class given is cell-based. The following applies: 24 h. The essentials:
as §1

The subject of series [4] is human breast adenocarcinoma cells MCF7. The experiment in a line: cells. The class given is cell-based. As to conditions: 24 h. The essentials: (§3)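 Cells were exposed to compounds and viability was then quantified by MTT assay, per an earlier published method. Panel included leukemia Kasumi, hepatoma HepG-2, gastric SGC-7901 and normal lung epithelial 2B cells.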
Series [5] has as its system human gastric cancer cell SGC-7901. In words: cells. The following applies: 24 h. The class given is cell-based. The essentials:
(§4)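 Compound cytotoxicity is assessed with the MTT method in human cancer cells and normal 2B lung epithelial cells.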

Series [6] has as its system human acute lymphoblastic leukemia cells K562. The experiment in a line: cells. Type of series: cell-based. As to conditions: 24 h. The gist of the method: as §3
Series [7] has as its system human lung epithelial normal cell 2B. In words: cells. Type of series: cell-based. As to conditions: 24 h. The gist of the method: as §2
Series [8] relates to human colon cancer cell HCT-116. The experiment in a line: cells. As to conditions: 24 h. The class given is cell-based. The gist of the method: as §1
In series [9] the test system is human cells Kasumi. The experiment in a line: MTT cytotoxicity assay, Kasumi. The class given is cell-based. The essentials:
as §4

Series [10] in a line: Chemical stability of 1 in MeOH (oxidation to 2). The class given is physicochemical. As to conditions: purified 1 dissolved in MeOH for 3 days.
In series [11] the test system is S. brevitalea DSM 7029 wild type. The experiment in a line: Growth curve of DSM 7029 wild type with compounds (Bioscreen C). Type of series: cell-based, Schlegelella brevitalea DSM 7029. The following applies: CYMG medium, compound 0.1 μg/μL, OD600 every hour for 42 h, Bioscreen C. The method, then:
The growth curve was tested by Bioscreen C (Labsystems, Finland) as follow. Overnight culture was inoculated into 400 μL fresh CYMG medium in the ratio of 1:100 (the concentration of compounds was 0.1 μg/μL) and shook in normal speed. The OD600 value was gained in every hour for 42 h in total. Biofilm formation was measured at 18 h and 36 h respectively, as reported previously. In brief, the free-floating cells were removed, and the microtitre plate was washed with PBS (pH 7.4) after incubation for 18 h and 36 h. The biofilm was stained by adding 200 µL of crystal violet (0.1%) solution. Crystal violet solution was removed after 15 min and 200 µL of ethanol (95%) was added. The absorbance at OD600 was read using a microplate reader (Infinite M200, Tecan, Männedorf, Switzerland). Meanwhile, free-floating cells were used to test the secretion of pigment. The bacteria were removed and the supernatant was measured at OD600.

Series [12] deals with methionyl-tRNA formyltransferase (Fmt). The experiment in a line: In vitro transformylation assay with Fmt. Type of series: biochemical, Schlegelella brevitalea DSM 7029. The following applies: 1 mM substrate, 25 μM Fmt, 1.5 mM N5,N10-methenylH4F, 50 mM HEPES pH 7.5, 30 °C, 4 h. The method, then:
The in vitro assay of formyltransferase was tested. In brief, the formyl-donor co-substrate intermediate N^5, N^10-methenylH4F was first synthesized as follow: 14 mg of N^5-fH4F was dissolved in 3 mL of water and was converted to N^5, N^10-methenylH^4F through addition of 0.1 M HCl, until pH 1.9 was reached. The solution was then brought to a final volume of 4.4 mL with water and continually incubated at room temperature for 4 h. Then, the transformylation assay was setup in a 50 μL volume, in the presence of 50 mM HEPES buffer pH 7.5, 1 mM substrates (compounds 1, 1a, 13a), 1.5 mM N^5, N^10-methenylH4F, and 25 μM Fmt (35 kDa). Before the addition of the compounds and the enzyme, the intermediate N^5, N^10-methenylH4F was preincubated in the reaction buffer at 30 °C for 30 min, to permit the final pH-dependent conversion to N^10-fH4F. After the addition of the compounds and the enzyme, the reaction was allowed to proceed for 4 h at 30 °C, then ceased by the addition of 2 μL FA, and analyzed via HPLC‒MS. The condition for 1: 0–3 min, 20% ACN; 3–18 min, 20–60% ACN; 18.1 min, 95% ACN; 18.1–22 min, 95% ACN; 22.1 min, 20% ACN; 22.1–25 min, 20% ACN, ACN and H2O contained 0.1% FA; detection by UV spectroscopy at 200–400 nm. […]

The subject of series [13] is S. brevitalea DSM 7029 wild type. The experiment in a line: Biofilm formation of DSM 7029 wild type with compounds (crystal violet). The class given is cell-based, Schlegelella brevitalea DSM 7029. The essentials:
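CYMG medium inoculated 1:100 from overnight culture with compounds at 0.1 μg/μL; OD600 read hourly for 42 h with shaking. Biofilm quantified at 18 h and 36 h by 0.1% crystal violet staining, 95% ethanol elution, OD600. Pigment secretion measured as OD600 of cell-free supernatant.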

Series [14] concerns human ovarian cancer cell line SKOV3. The experiment in a line: cells. Type of series: cell-based. The following applies: 24 h. The essentials: as §3
Series [15] deals with tumor lines. The experiment in a line: MTT cytotoxicity assay, statements on the whole panel. Type of series: cell-based, human. The essentials: as §4
Series [16] relates to RAW 264.7 cells. In words: NO production in LPS-induced RAW264.7 cells (Griess method), anti-inflammatory. Type of series: cell-based. The following applies: compounds 0-80 μM for 30 min, then co-treatment with LPS 24 h; Griess reagents, OD 540 nm. The source says:
The two human acute lymphoblastic leukemia cells K562 and Kasumi, two human breast adenocarcinoma cells MCF7 and MDA-MB-231, human hepatoma cell HepG-2, human lung adenocarcinoma cell A549, human gastric cancer cell SGC-7901, human colon cancer cell HCT-116, human ovarian cancer cell line SKOV3, or human lung epithelial normal cell 2B were obtained from Beyotime Biotechnology and utilized to test the cytotoxicity of compounds by MTT assays as previous study. The anti-inflammatory effect of the compounds was detected by the influence on the increase in the level of nitric oxide caused by lipopolysaccharide (LPS) based on the classic Griess method. RAW 264.7 cells (Shanghai Institutes for Biological Science) were seeded in 96-well plates and incubated for 24 h. Then, cells were treated with compounds 29, 29a, 31, and 31a (0-80 μM) for 30 min, followed by co-treatment with LPS ([…]) for another 24 h. The Nitric Oxide assay kit with Griess reagents (Beyotime, Lot: S0021, Shanghai, China) was used to examine cellular supernatant nitrite accumulation, which represents cellular NO levels. The OD value of 540 nm absorbance was detected with a microplate reader. […]
We measured NO production to test the anti-inflammatory activity of compounds […]
cellular NO levels. The OD value of 540 nm absorbance was detected with a microplate […]

Setting [17] is: relative to wild type treated with H2O = 100%, crystal violet 0.1%, OD600, mean of n = 3.

In the case of `CSCC[C@@H](N)C(=O)N[C@H](CC(N)=O)C(=O)N1CCC[C@H]1C(=O)N[C@H](C(=O)N[C@H](Cc1ccccc1)C(=O)N1CCC[C@H]1C(=O)N[C@@H](Cc1c[nH]c2ccccc12)C(=O)N[C@@H](C(=O)N[C@@H](C)C(=O)N[C@H](C)C(=O)N[C@@H](CO)C(=O)N[C@@H](C)C(=O)NCCCCN)C(C)C)C(C)C` [Compound 1, Glidonin A] (H-[dM][dN]PV[dF]PW[dV]A[dA]SA-{NH(CH2)4NH2}), the IC50 in series [1] was 7.2 ± 0.79 µM; in [2], above 20 µM; in series [3], above 20 µM; in series [4], above 20 µM; in series [5], above 20 µM; in series [6], above 20 µM. The results for the IC50 in [7], in [8] and in [9] (24 h) were above 20 µM, above 20 µM and 18.3 ± 1.22 µM, respectively. Moreover, the “cytotoxic / antitumor activity against A549 in words” value in series [1] (MTT assay) is given as “moderate activities”. Besides, the “cytotoxic activity against Kasumi in words” value in series [9] (MTT assay) was “moderate activities”. Besides, the “chemical stability: change of 1 to the Met(O) product 2” value in series [10] is listed as “without changing to 2”. For the same molecule, in series [11], the “effect on growth of DSM 7029 wild type in words” value is given as “no effect”. For the same molecule, the “formylation by Fmt, formyl product by HPLC-MS” value in [12] was “higher than control”. Further, the “effect on biofilm formation of DSM 7029 wild type in words” value in series [13] (crystal violet staining) is recorded as “less effect on biofilm formation”. Besides, the “biofilm formation 18 h, Average” value in series [13] (setting [17]) is listed as 98.1978%. Besides, the “biofilm formation 36 h, Average” value in [13] (setting [17]) turned out to be 87.2902%.

On to `CCCCCCCC(=O)N[C@H](C(=O)N[C@@H](Cc1ccccc1)C(=O)N[C@@H](CCC(=O)O)C(=O)N[C@H](C(=O)N[C@@H](C)C(=O)NCCCCN)[C@@H](C)CC)C(C)C` [Compound 31] (Octanoyl-VFEIA-{NH(CH2)4NH2}; N-terminus assumed), for which the IC50 in series [1] was 198.3 ± 1.25 µM; in series [2] it was 136.2 ± 0.15 µM; in [14] it was 241.4 ± 0.07 µM; in series [3], 168.9 ± 1.05 µM; in [7], 42.6 ± 1.25 µM; in [15] (24 h), above 40 µM. The “cytotoxic / antitumor activity in words” value in series [15] (MTT assay, panel of tumor cell lines) was “higher anti-inflammatory and antitumor activities than 29a and 31a”. In addition, the “anti-inflammatory activity (NO production in LPS-induced RAW264.7 cells) in words” value in series [16] was “higher anti-inflammatory and antitumor activities than 29a and 31a; also recorded: moderate; also recorded: suppressed moderately the release”.

The values above are taken from article PMC10587159, “Biosynthesis and engineering of the nonribosomal peptides with a C-terminal putrescine” (Nature Communications, 2023).
